Results reported in ChEMBL document CHEMBL5465560, “Selectivity Literature for EUbOPEN Chemogenomic Library” (2024).

How the values were obtained:
[1] = biological target: Macrophage-stimulating protein receptor (Homo sapiens, UniProt Q04912); assay: Selectivity interaction (KinomeScan (DiscoverX)) EUB0001049a MST1R; conditions: at 1 µM
[2] = biological target: Eukaryotic translation initiation factor 2-alpha kinase 1 (Homo sapiens) (UniProt Q9BQI3); assay: Selectivity interaction (KinomeScan (DiscoverX)) EUB0000229b EIF2AK1; conditions: at 10 µM
[3] = biological target: 5-hydroxytryptamine receptor 1B (Homo sapiens) (UniProt P28222); assay: Selectivity interaction (GPCR panel (PDSP screen)) EUB0001079a HTR1B; conditions: at 10 µM
[4] = system: Tyrosine-protein kinase ABL1 (Homo sapiens), P00519 [H396P]; conditions: at 10 µM
[5] = biological target: Lethal(3)malignant brain tumor-like protein 3 (Homo sapiens) (UniProt Q96JM7); assay: Selectivity interaction (PWWP, WD40, and Tudor domain panel (DSLS measurements, literature)) EUB0000270b L3MBTL3
[6] = biological target: T1, Cyclin-dependent kinase-like 2 (Homo sapiens) (UniProt Q92772); assay: Selectivity interaction (Ambit KINOMEscan and KiNATiv profiling in Jurkat cells) EUB0000090b CDKL2; format: cell-based; conditions: at 1 µM
T1 sequence (whole entry): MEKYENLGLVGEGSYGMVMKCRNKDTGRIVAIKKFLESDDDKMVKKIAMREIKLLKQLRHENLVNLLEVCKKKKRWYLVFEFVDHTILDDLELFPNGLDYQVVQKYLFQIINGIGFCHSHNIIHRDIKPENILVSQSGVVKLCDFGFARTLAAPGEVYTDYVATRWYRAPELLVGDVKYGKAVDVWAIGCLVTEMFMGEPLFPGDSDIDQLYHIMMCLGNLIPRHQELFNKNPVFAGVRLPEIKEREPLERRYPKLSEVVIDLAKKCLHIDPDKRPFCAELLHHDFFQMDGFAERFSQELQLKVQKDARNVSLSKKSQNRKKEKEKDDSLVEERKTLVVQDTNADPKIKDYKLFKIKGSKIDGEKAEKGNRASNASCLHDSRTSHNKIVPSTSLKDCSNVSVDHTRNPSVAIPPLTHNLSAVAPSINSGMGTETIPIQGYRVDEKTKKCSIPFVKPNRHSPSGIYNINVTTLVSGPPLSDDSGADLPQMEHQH

[7] = biological target: T2, Serine/threonine-protein kinase ULK2 (Homo sapiens) (UniProt Q8IYT8); assay: Selectivity interaction (KinomeScan (DiscoverX)) EUB0000045b ULK2
T2 sequence (whole entry): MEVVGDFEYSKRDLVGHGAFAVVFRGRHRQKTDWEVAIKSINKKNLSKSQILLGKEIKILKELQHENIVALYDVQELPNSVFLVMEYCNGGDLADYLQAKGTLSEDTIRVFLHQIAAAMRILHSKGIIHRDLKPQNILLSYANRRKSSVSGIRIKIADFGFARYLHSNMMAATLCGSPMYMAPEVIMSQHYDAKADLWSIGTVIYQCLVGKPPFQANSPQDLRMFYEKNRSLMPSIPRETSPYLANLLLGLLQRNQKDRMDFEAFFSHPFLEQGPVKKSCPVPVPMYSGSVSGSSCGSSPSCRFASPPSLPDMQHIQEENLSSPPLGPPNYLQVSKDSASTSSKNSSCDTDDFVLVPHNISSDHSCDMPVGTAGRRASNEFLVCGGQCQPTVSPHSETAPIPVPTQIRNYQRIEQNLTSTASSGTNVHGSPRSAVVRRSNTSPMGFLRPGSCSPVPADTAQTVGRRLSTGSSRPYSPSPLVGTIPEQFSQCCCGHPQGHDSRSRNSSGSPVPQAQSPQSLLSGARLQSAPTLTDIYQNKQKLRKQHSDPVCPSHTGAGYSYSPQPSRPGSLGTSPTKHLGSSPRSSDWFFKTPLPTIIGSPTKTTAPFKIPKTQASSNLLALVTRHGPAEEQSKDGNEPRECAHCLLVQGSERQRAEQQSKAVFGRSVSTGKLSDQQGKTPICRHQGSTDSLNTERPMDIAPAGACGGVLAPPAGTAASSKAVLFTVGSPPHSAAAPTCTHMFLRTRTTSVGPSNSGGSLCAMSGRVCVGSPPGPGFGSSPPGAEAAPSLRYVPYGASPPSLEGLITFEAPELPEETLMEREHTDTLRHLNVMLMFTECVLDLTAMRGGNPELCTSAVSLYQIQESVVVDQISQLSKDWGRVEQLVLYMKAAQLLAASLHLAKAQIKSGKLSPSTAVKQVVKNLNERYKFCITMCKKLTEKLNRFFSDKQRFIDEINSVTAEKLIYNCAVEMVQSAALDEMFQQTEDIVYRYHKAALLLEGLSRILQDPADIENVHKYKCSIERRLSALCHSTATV

[8] = biological target: Calcium/calmodulin-dependent protein kinase type II subunit delta (Homo sapiens) (UniProt Q13557); assay: Selectivity interaction (ActivX KiNativ screen (ex vivo kinase selectivity in human PBMCs)) EUB0001619a CAMK2D; format: cell-based; conditions: PBMC, at 1 µM
[9] = biological target: Serine/threonine-protein kinase 25 (Homo sapiens) (UniProt O00506); assay: Selectivity interaction (KinomeScan (DiscoverX)) EUB0000655a STK25; conditions: at 10 µM
[10] = biological target: Mitogen-activated protein kinase 4 (Homo sapiens) (UniProt P31152); assay: Selectivity interaction (KinomeScan (DiscoverX)) EUB0000607a MAPK4; conditions: at 10 µM
[11] = biological target: T3, Serine/threonine-protein kinase Nek11 (Homo sapiens) (UniProt Q8NG66); assay: Selectivity interaction (ProQinase) EUB0000171b NEK11
T3 sequence (whole entry): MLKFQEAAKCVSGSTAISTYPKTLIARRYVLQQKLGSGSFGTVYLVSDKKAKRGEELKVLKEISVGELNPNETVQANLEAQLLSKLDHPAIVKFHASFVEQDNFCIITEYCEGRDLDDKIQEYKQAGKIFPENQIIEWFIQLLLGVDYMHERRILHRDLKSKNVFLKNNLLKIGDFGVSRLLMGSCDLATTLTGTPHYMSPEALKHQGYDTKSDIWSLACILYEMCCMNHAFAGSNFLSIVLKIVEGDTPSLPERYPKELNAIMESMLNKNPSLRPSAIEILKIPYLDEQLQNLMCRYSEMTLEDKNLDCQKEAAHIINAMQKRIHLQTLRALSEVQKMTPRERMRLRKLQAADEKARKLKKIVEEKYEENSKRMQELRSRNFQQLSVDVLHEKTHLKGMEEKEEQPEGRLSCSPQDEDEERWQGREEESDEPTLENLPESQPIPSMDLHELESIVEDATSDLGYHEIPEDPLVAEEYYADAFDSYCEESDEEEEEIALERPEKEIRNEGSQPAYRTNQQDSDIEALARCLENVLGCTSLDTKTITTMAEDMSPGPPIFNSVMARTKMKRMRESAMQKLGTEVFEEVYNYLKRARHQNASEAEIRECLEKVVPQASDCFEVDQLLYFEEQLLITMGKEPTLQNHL

[12] = biological target: Serine/threonine-protein kinase PAK 3 (Homo sapiens) (UniProt O75914); assay: Selectivity interaction (ProQinase) EUB0000171b PAK3
Sequence of Serine/threonine-protein kinase PAK 3 (Homo sapiens) (O75914 whole entry, looked up): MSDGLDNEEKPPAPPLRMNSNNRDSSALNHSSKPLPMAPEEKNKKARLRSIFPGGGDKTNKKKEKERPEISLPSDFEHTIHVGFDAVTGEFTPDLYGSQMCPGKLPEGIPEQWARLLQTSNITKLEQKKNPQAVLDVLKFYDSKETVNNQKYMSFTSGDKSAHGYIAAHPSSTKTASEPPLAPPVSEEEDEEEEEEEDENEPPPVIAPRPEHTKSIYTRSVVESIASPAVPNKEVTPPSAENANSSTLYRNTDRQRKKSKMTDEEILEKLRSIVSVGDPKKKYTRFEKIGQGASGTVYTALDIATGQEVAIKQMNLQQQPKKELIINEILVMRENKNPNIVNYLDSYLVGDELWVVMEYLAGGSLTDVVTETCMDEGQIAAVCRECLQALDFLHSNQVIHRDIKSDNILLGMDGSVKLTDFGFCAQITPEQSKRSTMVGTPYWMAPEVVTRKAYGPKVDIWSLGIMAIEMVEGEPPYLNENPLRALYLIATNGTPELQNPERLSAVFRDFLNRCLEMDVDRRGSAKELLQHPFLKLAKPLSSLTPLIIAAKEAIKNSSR

Sequence of Calcium/calmodulin-dependent protein kinase type II subunit delta (Homo sapiens) (Q13557 whole entry): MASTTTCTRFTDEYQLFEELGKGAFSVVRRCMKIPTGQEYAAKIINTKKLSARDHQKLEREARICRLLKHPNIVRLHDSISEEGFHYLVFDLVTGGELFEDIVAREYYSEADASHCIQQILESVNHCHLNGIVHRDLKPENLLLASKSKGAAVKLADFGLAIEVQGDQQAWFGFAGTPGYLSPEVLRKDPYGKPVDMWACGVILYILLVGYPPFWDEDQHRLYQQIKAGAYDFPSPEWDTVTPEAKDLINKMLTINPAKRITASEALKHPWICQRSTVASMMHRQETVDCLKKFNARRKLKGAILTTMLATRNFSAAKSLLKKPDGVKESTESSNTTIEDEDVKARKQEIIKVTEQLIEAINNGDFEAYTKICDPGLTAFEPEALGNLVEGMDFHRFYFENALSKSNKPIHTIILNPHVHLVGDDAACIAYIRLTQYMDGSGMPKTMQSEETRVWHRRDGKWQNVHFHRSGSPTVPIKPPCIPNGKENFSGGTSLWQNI
Sequence of Lethal(3)malignant brain tumor-like protein 3 (Homo sapiens) (Q96JM7 whole entry, the tested form may be a part): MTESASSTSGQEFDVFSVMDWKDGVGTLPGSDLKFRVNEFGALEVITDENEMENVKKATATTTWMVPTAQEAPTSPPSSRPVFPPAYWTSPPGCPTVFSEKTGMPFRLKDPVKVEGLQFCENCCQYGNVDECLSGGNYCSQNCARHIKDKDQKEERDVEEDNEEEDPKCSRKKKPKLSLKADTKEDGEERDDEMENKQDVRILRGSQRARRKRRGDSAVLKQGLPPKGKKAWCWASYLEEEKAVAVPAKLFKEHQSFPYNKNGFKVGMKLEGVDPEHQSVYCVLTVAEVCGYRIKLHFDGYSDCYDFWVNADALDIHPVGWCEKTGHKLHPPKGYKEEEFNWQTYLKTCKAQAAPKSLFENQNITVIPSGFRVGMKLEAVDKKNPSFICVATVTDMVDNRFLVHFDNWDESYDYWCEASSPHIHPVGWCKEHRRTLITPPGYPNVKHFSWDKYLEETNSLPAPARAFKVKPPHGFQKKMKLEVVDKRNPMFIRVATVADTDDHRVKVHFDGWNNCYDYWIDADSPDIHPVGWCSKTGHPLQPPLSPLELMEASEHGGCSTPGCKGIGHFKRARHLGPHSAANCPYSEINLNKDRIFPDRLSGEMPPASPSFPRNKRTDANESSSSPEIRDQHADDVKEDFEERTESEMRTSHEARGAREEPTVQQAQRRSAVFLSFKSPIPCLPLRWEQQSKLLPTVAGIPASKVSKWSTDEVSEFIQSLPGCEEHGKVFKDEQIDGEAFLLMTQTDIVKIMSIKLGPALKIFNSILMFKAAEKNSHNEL
Sequence of Serine/threonine-protein kinase 25 (Homo sapiens) (O00506 whole entry, looked up): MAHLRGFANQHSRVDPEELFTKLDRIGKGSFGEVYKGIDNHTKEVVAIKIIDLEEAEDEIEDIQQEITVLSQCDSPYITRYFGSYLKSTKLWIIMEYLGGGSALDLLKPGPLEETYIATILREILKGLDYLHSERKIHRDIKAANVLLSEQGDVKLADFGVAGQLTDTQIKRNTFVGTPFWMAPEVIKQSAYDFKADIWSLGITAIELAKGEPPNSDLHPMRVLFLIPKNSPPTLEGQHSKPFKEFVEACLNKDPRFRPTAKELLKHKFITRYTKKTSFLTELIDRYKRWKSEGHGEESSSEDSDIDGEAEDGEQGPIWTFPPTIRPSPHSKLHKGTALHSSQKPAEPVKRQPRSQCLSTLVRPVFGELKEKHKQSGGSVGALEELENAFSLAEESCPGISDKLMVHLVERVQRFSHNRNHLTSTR
Sequence of Mitogen-activated protein kinase 4 (Homo sapiens) (P31152 whole entry): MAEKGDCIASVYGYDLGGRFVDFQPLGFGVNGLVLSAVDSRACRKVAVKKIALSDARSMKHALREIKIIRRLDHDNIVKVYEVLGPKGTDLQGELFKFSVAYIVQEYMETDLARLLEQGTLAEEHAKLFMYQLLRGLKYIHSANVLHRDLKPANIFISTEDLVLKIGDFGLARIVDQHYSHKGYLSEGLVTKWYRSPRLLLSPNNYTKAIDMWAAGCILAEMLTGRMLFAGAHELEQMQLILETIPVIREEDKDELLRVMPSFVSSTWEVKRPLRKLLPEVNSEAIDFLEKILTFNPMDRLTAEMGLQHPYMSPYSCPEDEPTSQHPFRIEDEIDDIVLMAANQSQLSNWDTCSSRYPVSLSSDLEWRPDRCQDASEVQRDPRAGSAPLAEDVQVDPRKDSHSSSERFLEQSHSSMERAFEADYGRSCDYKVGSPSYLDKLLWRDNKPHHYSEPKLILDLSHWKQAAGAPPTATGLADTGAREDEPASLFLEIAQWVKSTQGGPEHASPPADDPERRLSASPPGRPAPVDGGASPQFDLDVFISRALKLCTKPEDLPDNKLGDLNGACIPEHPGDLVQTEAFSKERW
Sequence of Macrophage-stimulating protein receptor (Q04912 25-304 limits assumed): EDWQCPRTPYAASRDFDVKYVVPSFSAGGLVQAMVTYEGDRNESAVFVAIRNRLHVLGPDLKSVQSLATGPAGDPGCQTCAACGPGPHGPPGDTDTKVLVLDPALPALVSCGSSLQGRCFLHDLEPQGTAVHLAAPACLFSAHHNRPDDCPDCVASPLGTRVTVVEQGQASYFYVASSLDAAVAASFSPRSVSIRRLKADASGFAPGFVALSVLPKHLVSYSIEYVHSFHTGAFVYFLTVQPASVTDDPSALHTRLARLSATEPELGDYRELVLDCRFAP
Sequence of Macrophage-stimulating protein receptor (Q04912 310-1400 limits assumed): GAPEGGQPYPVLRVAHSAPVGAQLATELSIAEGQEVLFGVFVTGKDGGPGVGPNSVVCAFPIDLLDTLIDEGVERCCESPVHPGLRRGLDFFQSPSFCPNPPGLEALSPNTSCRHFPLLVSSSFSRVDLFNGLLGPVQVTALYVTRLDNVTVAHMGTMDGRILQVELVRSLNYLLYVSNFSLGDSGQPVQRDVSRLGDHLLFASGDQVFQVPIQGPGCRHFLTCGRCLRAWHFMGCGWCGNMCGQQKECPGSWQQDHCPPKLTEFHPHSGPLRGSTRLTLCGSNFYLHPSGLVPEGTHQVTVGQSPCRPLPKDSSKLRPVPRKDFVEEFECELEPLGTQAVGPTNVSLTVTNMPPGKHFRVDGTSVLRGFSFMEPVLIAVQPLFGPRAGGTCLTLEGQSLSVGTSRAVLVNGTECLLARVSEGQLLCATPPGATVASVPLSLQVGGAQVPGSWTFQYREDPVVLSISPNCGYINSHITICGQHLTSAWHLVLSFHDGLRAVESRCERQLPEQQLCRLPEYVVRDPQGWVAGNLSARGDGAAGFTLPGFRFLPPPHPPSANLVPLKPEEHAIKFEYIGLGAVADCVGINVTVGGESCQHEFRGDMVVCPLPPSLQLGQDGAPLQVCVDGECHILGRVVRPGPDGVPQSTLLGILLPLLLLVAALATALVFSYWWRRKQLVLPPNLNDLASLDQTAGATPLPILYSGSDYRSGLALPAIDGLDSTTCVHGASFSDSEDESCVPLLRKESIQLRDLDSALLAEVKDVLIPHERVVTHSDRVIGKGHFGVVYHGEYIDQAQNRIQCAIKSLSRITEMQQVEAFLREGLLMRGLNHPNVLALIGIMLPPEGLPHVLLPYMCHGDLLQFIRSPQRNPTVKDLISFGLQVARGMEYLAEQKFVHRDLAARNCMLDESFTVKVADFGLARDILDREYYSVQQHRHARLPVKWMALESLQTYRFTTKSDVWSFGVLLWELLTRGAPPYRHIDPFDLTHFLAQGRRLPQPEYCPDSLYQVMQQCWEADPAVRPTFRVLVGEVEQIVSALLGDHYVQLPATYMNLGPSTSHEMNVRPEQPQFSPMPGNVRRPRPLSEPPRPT
Sequence of Eukaryotic translation initiation factor 2-alpha kinase 1 (Homo sapiens) (Q9BQI3 whole entry): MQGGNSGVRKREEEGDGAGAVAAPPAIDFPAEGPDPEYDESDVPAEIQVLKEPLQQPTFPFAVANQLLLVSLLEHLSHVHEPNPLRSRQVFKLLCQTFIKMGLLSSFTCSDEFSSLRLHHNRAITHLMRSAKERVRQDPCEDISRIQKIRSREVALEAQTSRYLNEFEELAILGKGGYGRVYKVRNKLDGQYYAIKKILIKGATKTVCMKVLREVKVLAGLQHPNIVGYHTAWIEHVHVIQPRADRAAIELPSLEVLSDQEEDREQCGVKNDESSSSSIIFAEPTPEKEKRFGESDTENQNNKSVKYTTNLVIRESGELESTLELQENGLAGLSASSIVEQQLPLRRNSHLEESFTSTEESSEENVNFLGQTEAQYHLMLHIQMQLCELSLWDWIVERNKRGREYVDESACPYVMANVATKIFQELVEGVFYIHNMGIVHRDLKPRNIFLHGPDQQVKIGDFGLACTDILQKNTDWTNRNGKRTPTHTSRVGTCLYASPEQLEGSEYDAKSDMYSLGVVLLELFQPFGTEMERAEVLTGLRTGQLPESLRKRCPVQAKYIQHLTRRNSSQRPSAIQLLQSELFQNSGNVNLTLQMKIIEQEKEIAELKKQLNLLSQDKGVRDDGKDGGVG

Question: How did the % of control [1] turn out when `COc1cc(Nc2nc(C)cc(-c3cnn4nc(OC)ccc34)n2)cc(C(F)(F)F)c1` was run?
Answer: 94%

Question: Which % binding [2] does the source give for `COc1cc(N(C)c2ccnc3ccc(C(F)(F)F)cc23)cc(OC)c1OC` here?
Answer: 74%

Question: `Nc1cnc(N2CCc3cc(S(=O)(=O)Nc4c(F)cc(Cl)cc4F)cc(N4CCCC4=O)c32)nc1` [TP-020n] was tested. Which % of inhibition [3] did it give?
Answer: -3.82%

Question: Which % of control [4] does the source give for `CCN(CC)CCCCNc1ncc2cc(-c3cc(OC)cc(OC)c3)c(NC(=O)NC(C)(C)C)nc2n1` here?
Answer: 100%

Question: For `Cc1cc(CN)cc(C)c1-c1ncn(C)c1-c1cncn1C`, which dTagg [5] is on record?
Answer: 0.2 K

Question: For `CN(C)C/C=C/C(=O)Nc1ccc(C(=O)N2CCCC(Nc3ncc(Cl)c(-c4c[nH]c5ccccc45)n3)C2)cc1` (stereo not given), which % of control [6] is on record?
Answer: 75%

Question: How did the % of control ([7]; at 1 µM) turn out when `C=CC(=O)Nc1cc(-n2c(=O)ccc3cnc4ccc(-c5ccc(NS(C)(=O)=O)cc5)cc4c32)ccc1C` was run?
Answer: 100%

Question: What about the % of control ([7]; at 10 µM) of the same compound?
Answer: 92%

Question: `N#Cc1cccc(-c2c[nH]c3ncnc(N4CCOCC4)c23)c1` was tested. Which % of inhibition [8] did it give?
Answer: 4%

Question: Which % of control [9] does the source give for `CN(C)CCOc1ccc(-c2nc(-c3ccncc3)c(-c3ccc4c(c3)CC/C4=N\O)[nH]2)cc1` here?
Answer: 100%

Question: How did the % of control [10] turn out when `CNC(=O)Nc1ccc(-c2nc(N3CC4CCC(C3)O4)c3cnn(C4CCC5(CC4)OCCO5)c3n2)cc1` was run?
Answer: 100%

Question: For `C=CC(=O)Nc1cccc(C(=O)Nc2ccc(Nc3cc(-c4[nH]c(SC)nc4C)ccn3)cc2)c1`, which % of control ([11]; at 1 µM) is on record?
Answer: 103%

Question: And the % of control ([11]; at 5 µM)?
Answer: 87%

Question: And the % of control ([12]; at 1 µM)?
Answer: 98%

Question: And the % of control ([12]; at 5 µM)?
Answer: 83%
